# According to US20100093722A1, “HETEROARYL AND PHENYL SUBSTITUTED THIENO[2,3-d]PYRIMIDINES AND THEIR USE AS ADENOSINE A2a RECEPTOR ANTAGONISTS” (priority 2008, published 2010):
# Assays:
# [1] = biological target: T1, human adenosine A1 receptor (Homo sapiens, UniProt P30542); test: Adenosine A1 Receptor Functional Assay (A1GAL2); type: cell-based; conditions: CHO-K1 cells overexpressing human A1, cAMP inducible beta-galactosidase reporter, 4 nM r-PIA/1 uM Forskolin challenge
# T1 construct: expressed in transfected cells; host or cells: CHO-K1
# T1 sequence (P30542 1-326): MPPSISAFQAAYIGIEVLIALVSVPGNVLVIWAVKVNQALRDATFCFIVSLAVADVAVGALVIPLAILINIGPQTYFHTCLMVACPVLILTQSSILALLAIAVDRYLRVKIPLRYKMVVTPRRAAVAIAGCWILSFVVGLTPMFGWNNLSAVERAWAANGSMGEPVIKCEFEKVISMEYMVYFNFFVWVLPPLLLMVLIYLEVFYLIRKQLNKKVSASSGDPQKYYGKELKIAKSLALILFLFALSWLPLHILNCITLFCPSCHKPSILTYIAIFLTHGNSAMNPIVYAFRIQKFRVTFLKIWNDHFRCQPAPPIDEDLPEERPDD
# Method: Adenosine A1 Receptor Functional Assay (A1GAL2)
# To initiate the functional assay, cryopreserved CHO-K1 cells overexpressing the human adenosine A1 receptor and containing a cAMP inducible beta-galactosidase reporter gene were thawed, centrifuged, DMSO containing media removed, and then seeded with fresh culture media into clear 384-well tissue culture treated plates (BD #353961) at a concentration of 10K cells/well. Prior to assay, these plates were cultured for two days at 37+ C., 5% CO2, 90% Rh. On the day of the functional assay, culture media was removed and replaced with 45 uL assay medium (Hams/F-12 Modified (Mediatech #10-080CV) supplemented w/0.1% BSA). Test compounds were diluted and 11 point curves created at a 1000× concentration in 100% DMSO. Immediately after addition of assay media to the cell plates, 50 nL of the appropriate test compound antagonist or agonist control curves were added to cell plates using a Cartesian Hummingbird. Compound curves were allowed to incubate at room temperature on cell plates for approximately 15 minutes before addition of a 4 nM r-PIA (Sigma P4532)/1 uM Forskolin (Sigma F3917) agonist challenge (5 uL volume). A control curve of r-PIA in 1 uM Forskolin, a DMSO/Media control, and a single dose of Forskolin were also included on each plate. After additions, cell plates were allowed to incubate at 37° C., 5% CO2, 90% Rh for 5.5-6 hours. After incubation, media was removed, and cell plates were washed 1× 50 uL with DPBS w/o Ca & Mg (Mediatech 21-031-CV). Into dry wells, 20 uL of 1× Reporter Lysis Buffer (Promega E3971 (diluted in dH2O from 5× stock)) was added to each well and plates frozen at −20° C. overnight. For β-galactosidase enzyme calorimetric assay, plates were thawed out at room temperature and 20 μL 2× assay buffer (Promega) was added to each well. Color was allowed to develop at 37° C., 5% CO2, 90% Rh for 1-1.5 h or until reasonable signal appeared. The calorimetric reaction was stopped with the addition of 60 μL/well 1M sodium carbonate. Plates were counted at 405 nm on a SpectraMax Microplate Reader (Molecular Devices). Data was analyzed in Microsoft Excel and IC/EC50 curves were fit using a standardized macro.
# [2] = biological target: T2, human adenosine A2a receptor (Homo sapiens, UniProt P29274); test: Adenosine A2a Receptor Functional Assay (A2AGAL2); type: cell-based; conditions: CHO-K1 cells overexpressing human A2a, cAMP inducible beta-galactosidase reporter, 15 nM NECA agonist challenge
# T2 construct: expressed in transfected cells; host or cells: CHO-K1
# T2 sequence (P29274 whole entry): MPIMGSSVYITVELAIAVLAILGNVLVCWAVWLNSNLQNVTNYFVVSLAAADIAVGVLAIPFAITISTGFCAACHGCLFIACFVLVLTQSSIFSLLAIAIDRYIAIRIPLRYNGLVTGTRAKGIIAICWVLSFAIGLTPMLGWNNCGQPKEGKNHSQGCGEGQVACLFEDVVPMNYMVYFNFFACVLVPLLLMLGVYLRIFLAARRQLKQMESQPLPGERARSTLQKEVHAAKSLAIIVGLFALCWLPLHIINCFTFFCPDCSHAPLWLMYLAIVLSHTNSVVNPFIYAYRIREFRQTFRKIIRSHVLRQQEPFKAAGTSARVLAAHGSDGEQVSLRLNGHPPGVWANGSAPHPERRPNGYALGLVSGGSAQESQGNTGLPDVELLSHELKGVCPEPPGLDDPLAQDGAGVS
# Method: Adenosine A2a Receptor Functional Assay (A2AGAL2)
# To initiate the functional assay, cryopreserved CHO-K1 cells overexpressing the human adenosine A2a receptor and containing a cAMP inducible beta-galactosidase reporter gene were thawed, centrifuged, DMSO containing media removed, and then seeded with fresh culture media into clear 384-well tissue culture treated plates (BD #353961) at a concentration of 10K cells/well. Prior to assay, these plates were cultured for two days at 37° C., 5% CO2, 90% Rh. On the day of the functional assay, culture media was removed and replaced with 45 uL assay medium (Hams/F-12 Modified (Mediatech #10-080CV) supplemented w/0.1% BSA). Test compounds were diluted and 11 point curves created at a 1000× concentration in 100% DMSO. Immediately after addition of assay media to the cell plates, 50 nL of the appropriate test compound antagonist or agonist control curves were added to cell plates using a Cartesian Hummingbird. Compound curves were allowed to incubate at room temperature on cell plates for approximately 15 minutes before addition of a 15 nM NECA (Sigma E2387) agonist challenge (5 uL volume). A control curve of NECA, a DMSO/Media control, and a single dose of Forskolin (Sigma F3917) were also included on each plate. After additions, cell plates were allowed to incubate at 37° C., 5% CO2, 90% Rh for 5.5-6 hours. After incubation, media was removed, and cell plates were washed 1× 50 uL with DPBS w/o Ca & Mg (Mediatech 21-031-CV). Into dry wells, 20 uL of 1× Reporter Lysis Buffer (Promega E3971 (diluted in dH2O from 5× stock)) was added to each well and plates frozen at −20° C. overnight. For β-galactosidase enzyme calorimetric assay, plates were thawed out at room temperature and 20 μL 2× assay buffer (Promega) was added to each well. Color was allowed to develop at 37° C., 5% CO2, 90% Rh for 1-1.5 h or until reasonable signal appeared. The calorimetric reaction was stopped with the addition of 60 μL/well 1M sodium carbonate. Plates were counted at 405 nm on a SpectraMax Microplate Reader (Molecular Devices). Data was analyzed in Microsoft Excel and IC/EC50 curves were fit using a standardized macro.
SMILES,Ki [1] [nM],Ki [2] [nM]
"N#Cc1cccc(-c2nc(N)c3cc(C(O)c4ccc(N5CCCCC5)nc4)sc3n2)c1 (centres unmarked) [Example 12, 3-{4-Amino-6-[hydroxy-(3,4,5,6-tetrahydro-2H-[1,2′]bipyridinyl-5′-yl)-methyl]-thieno[2,3-d]pyrimidin-2-yl}-benzonitrile]",1280,201
"N#Cc1cccc(-c2nc(N)c3cc(C(O)c4cccnc4N4CCOCC4)sc3n2)c1 (centres unmarked) [Example 13, 3-{4-Amino-6-[hydroxy-(2-morpholin-4-yl-pyridin-3-yl)-methyl]-thieno[2,3-d]pyrimidin-2-yl}-benzonitrile]",445,171
"N#Cc1cccc(-c2nc(N)c3cc(C(O)c4cccnc4N4CCCC4)sc3n2)c1 (centres unmarked) [Example 14, 3-{4-Amino-6-[hydroxy-(2-pyrrolidin-1-yl-pyridin-3-yl)-methyl]-thieno[2,3-d]pyrimidin-2-yl}-benzonitrile]",1290,1040
"Nc1nc(-c2ccccc2)nc2sc(Cc3ccccn3)cc12 [Example 16, 2-Phenyl-6-pyridin-2-ylmethyl-thieno[2,3-d]pyrimidin-4-ylamine]",48.7,5.71
"N#Cc1cccc(-c2nc(N)c3cc(C(O)c4cccnc4N4CCCCC4)sc3n2)c1 (centres unmarked) [Example 17, 3-{4-Amino-6-[hydroxy-(3,4,5,6-tetrahydro-2H-[1,2′]bipyridinyl-3′-yl)-methyl]-thieno[2,3-d]pyrimidin-2-yl}-benzonitrile]",277,32
"N#Cc1cccc(-c2nc(N)c3cc(Cc4cccnc4N4CCCCC4)sc3n2)c1 [Example 20, 3-[4-Amino-6-(3,4,5,6-tetrahydro-2H-[1,2′]bipyridinyl-3′-ylmethyl)-thieno[2,3-d]pyrimidin-2-yl]-benzonitrile]",292,45.3
"N#Cc1cccc(-c2nc(N)c3cc(C(O)c4ccncc4)sc3n2)c1 (centres unmarked) [Example 28, 3-[4-Amino-6-(hydroxy-pyridin-4-yl-methyl)-thieno[2,3-d]pyrimidin-2-yl]-benzonitrile]",787,87.5
"N#Cc1cccc(-c2nc(N)c3cc(C(O)c4cccnc4)sc3n2)c1 (centres unmarked) [Example 31, 3-[4-Amino-6-(hydroxy-pyridin-3-yl-methyl)-thieno[2,3-d]pyrimidin-2-yl]-benzonitrile]",285,16

# More lines, now with the values ahead:
Ki [1] [nM],Ki [2] [nM],SMILES
468,79.2,"N#Cc1cccc(-c2nc(N)c3cc(CCc4ccccn4)sc3n2)c1 [Example 2, 3-[4-Amino-6-(2-pyridin-2-yl-ethyl)-thieno[2,3-d]pyrimidin-2-yl]-benzonitrile]"
438,47.2,"Nc1nc(-c2ccccc2)nc2sc(Cc3ccc(Cl)nc3)cc12 [Example 3, 6-(6-Chloro-pyridin-3-ylmethyl)-2-phenyl-thieno[2,3-d]pyrimidin-4-ylamine]"
153,29.3,"COc1cccc(C(O)c2cc3c(N)nc(-c4cccc(C#N)c4)nc3s2)n1 (centres unmarked) [Example 11, 3-{4-Amino-6-[hydroxy-(6-methoxy-pyridin-2-yl)-methyl]-thieno[2,3-d]pyrimidin-2-yl}-benzonitrile]"
> 610,25.3,"N#Cc1cccc(-c2nc(N)c3cc(Cc4ccncc4Cl)sc3n2)c1 [Example 22, 3-[4-Amino-6-(3-chloro-pyridin-4-ylmethyl)-thieno[2,3-d]pyrimidin-2-yl]-benzonitrile]"
592,39.8,"N#Cc1cccc(-c2nc(N)c3cc(Cc4cccnc4N4CCOCC4)sc3n2)c1 [Example 27, 3-[4-Amino-6-(2-morpholin-4-yl-pyridin-3-ylmethyl)-thieno[2,3-d]pyrimidin-2-yl]-benzonitrile]"
145,5.09,"N#Cc1cccc(-c2nc(N)c3cc(C(O)c4cccnc4F)sc3n2)c1 (centres unmarked) [Example 29, 3-{4-Amino-6-[(2-fluoro-pyridin-3-yl)-hydroxy-methyl]-thieno[2,3-d]pyrimidin-2-yl}-benzonitrile]"
408,17.6,"N#Cc1cccc(-c2nc(N)c3cc(Cc4cccnc4)sc3n2)c1 [Example 32, 3-(4-Amino-6-pyridin-3-ylmethyl-thieno[2,3-d]pyrimidin-2-yl)-benzonitrile]"
726,156,"COc1ccc(C(O)c2cc3c(N)nc(-c4cccc(C#N)c4)nc3s2)cn1 (centres unmarked) [Example 36, 3-{4-Amino-6-[hydroxy-(6-methoxy-pyridin-3-yl)-methyl]-thieno[2,3-d]pyrimidin-2-yl}-benzonitrile]"
507,64.3,"COc1ccc(Cc2cc3c(N)nc(-c4cccc(C#N)c4)nc3s2)cn1 [Example 37, 3-[4-Amino-6-(6-methoxy-pyridin-3-ylmethyl)-thieno[2,3-d]pyrimidin-2-yl]-benzonitrile]"
289,53,"COc1ncccc1C(=O)c1cc2c(N)nc(-c3cccc(C#N)c3)nc2s1 [Example 39, 3-[4-Amino-6-(2-methoxy-pyridine-3-carbonyl)-thieno[2,3-d]pyrimidin-2-yl]-benzonitrile]"
443,442,"Nc1nc(-c2cccc(F)c2)nc2sc(Cc3ccc(Cl)nc3)cc12 [Example 40, 6-(6-Chloro-pyridin-3-ylmethyl)-2-(3-fluoro-phenyl)-thieno[2,3-d]pyrimidin-4-ylamine]"
